26 compounds from patent publication US8987275B2, “Indazole compounds and their uses” (Dana-Farber Cancer Institute, Inc., priority 2010, dated 2015) can be followed below.

Holding throughout (format): cell-based
The target in one test is T1, BCR-Abl T315I (Homo sapiens, UniProt P00519, T315I).
T1 construct: BCR (N-terminal fusion partner of BCR-ABL); human BCR would be P11274; expressed in transfected cells; host or cells: Ba/F3 (or 32D) murine hematopoietic cells transfected with BCR-ABL T315I in pCI-neo; the other entry of the earlier key: BCR (P11274, Breakpoint cluster region protein)
Kind of test: IC50 of compounds against kinase target T315I (Table I). The following applies: read-out: IC50 T3151. The method, then:
(§1) All compounds are initially dissolved in DMSO to make 10 mM stock solutions, and then are serially diluted to obtain final concentrations for in vitro experiments.
(§2) Ba/F3.p210 cells are obtained by transfecting the IL-3-dependent marine hematopoietic Ba/F3 cell line with a pGD vector containing p210BCR-ABL (B2A2) cDNA (Daley and Baltimore, 1988; Sattler et al., 1996; Okuda et al., 1996). Murine hematopoietic 32D cells are transduced with retrovirus to express p210 Bcr-ABL (32D.p210 cells) (Matulonis et al., 1993); the 32D-T315I cell line is transfected by electroporation with the imatinib resistant BCR-ABL construct (pCI-neo Mammalian Expression Vector; Promega (#E1841) harboring the point mutation T315I (Weisberg et al., 2005). Ba/F3 cells are stably transfected by electroporation with imatinib-resistant BCR-ABL constructs (pCI-neo Mammalian Expression Vector; Promega (#E1841) harboring the point mutations T315I, F317L, F486S, and M351T; transfectants are selected for neomycin resistance and IL-3-independent growth (Weisberg et al., 2005). Ba/F3 cells are stably transfected by electroporation with BCR-ABL point mutants identified in a random mutagenesis screen for BCR-ABL point mutants conferring resistance to nilotinib: Q252H, E292K, Y253C, Y253H, E255K, and V289L (Ray et al., 2007). Ba/F3 cells are made to express Tel-PDGFRβ as described by Golub et al., 1994, and Carroll et al., 1996. Constructs of D842V-PDGFRα and V561D-PDGFRα cDNA cloned into pcDNA3.1 are stably transfected into Ba/F3 cells by electroporation, and cells are selected for neomycin resistance and IL3-independent growth as described by Weisberg et al., 2006.
(§3) All cell lines are cultured with 5% CO2 at 37° C. in RPMI (Mediatech, Inc., Herndon, Va.) with 10% fetal calf serum (FCS) and supplemented with 1% L-glutamine. Parental Ba/F3 cells are similarly cultured with 15% WEHI-conditioned medium as a source of IL-3. Transfected cell lines are cultured in media supplemented with 1 mg/ml G418.

The target in another test is T2, EML4-Alk (Homo sapiens, UniProt Q9UM73).
T2 construct: EML4 (N-terminal fusion partner); human EML4 would be Q9HC35; the other entry of the earlier key: EML4 (Q9HC35, Echinoderm microtubule-associated protein-like 4)
T2 sequence (Q9UM73 1058-1620 limits assumed): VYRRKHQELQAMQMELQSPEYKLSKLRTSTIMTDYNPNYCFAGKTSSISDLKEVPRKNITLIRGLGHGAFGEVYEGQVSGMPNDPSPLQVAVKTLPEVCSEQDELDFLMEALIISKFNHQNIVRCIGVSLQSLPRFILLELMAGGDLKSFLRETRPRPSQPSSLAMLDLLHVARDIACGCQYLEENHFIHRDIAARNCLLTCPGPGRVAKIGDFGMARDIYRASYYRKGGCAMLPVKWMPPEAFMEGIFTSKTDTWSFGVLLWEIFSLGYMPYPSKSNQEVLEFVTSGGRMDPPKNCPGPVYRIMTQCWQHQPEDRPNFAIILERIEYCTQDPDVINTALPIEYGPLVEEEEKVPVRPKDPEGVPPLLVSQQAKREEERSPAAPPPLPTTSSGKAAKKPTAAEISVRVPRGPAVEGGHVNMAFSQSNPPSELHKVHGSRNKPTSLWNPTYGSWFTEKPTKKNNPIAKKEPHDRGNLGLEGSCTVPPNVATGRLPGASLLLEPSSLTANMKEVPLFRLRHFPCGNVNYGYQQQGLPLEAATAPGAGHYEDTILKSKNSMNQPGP
Kind of test: IC50 of compounds against kinase target EML4-Alk (Table I). On the procedure:
as §1, §3

For a further test, the target named is T3, Bcr-Abl (Homo sapiens, UniProt P00519).
T3 construct: BCR (N-terminal fusion partner, p210 form, B2A2 junction); expressed in transfected cells; host or cells: Ba/F3.p210 (or 32D.p210) murine hematopoietic cells; the other entry of the earlier key: BCR (P11274, Breakpoint cluster region protein)
Kind of test: IC50 of compounds against kinase target Bcr-Abl (Table I). On the procedure:
as §1, §2, §3

A further test addresses T4, Tel-Alk (Homo sapiens, UniProt Q9UM73).
T4 construct: TEL (ETV6); N-terminal fusion partner; human ETV6 would be P41212; the other entry of the earlier key: ETV6 (P41212, Transcription factor ETV6)
Kind of test: IC50 of compounds against kinase target Tel-Alk (Table I). On the procedure:
as §1, §3

T4 sequence (Q9UM73 1116-1392 limits assumed): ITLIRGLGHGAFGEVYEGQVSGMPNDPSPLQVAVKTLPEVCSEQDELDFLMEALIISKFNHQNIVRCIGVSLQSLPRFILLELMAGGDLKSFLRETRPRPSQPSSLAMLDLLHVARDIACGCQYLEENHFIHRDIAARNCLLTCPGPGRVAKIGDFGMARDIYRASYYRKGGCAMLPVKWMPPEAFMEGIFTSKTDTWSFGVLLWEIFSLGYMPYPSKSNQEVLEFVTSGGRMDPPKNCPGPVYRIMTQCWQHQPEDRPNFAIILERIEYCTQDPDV

As a reminder, the IC50 is the concentration that inhibits the measured activity by half. For the compound `CCN1CCN(Cc2ccc(NC(=O)c3cccc(-c4ccc5c(NC)n[nH]c5c4)c3)cc2C(F)(F)F)CC1` [Compound 2, N-(4-((4-ethylpiperazin-1-yl)methyl)-3-(trifluoromethyl)phenyl)-3-(3-(methylamino)-1H-indazol-6-yl)benzamide], the IC50 on BCR-Abl T315I was 630 nM; at EML4-Alk, 4190 nM; on Bcr-Abl it was 50 nM; on Tel-Alk it was 4480 nM.
Taken in the same sequence, the figures for `O=C(NCCN1CCOCC1)c1cccc(-c2ccc3c(NC(=O)C4CC4)n[nH]c3c2)c1` [Compound 7] were above 10000 nM, above 10000 nM, above 10000 nM and above 10000 nM.
With `O=C(Nc1cccc(C(F)(F)F)c1)c1cccc(-c2ccc3c(NC(=O)C4CC4)n[nH]c3c2)c1` [Compound 1], the IC50 on EML4-Alk, at Bcr-Abl and against Tel-Alk was above 10000 nM throughout.
In the case of `CCN1CCN(Cc2ccc(C(=O)Nc3cccc(-c4ccc5c(N)n[nH]c5c4)c3)cc2C(F)(F)F)CC1` [Compound 20], the IC50 at BCR-Abl T315I stood at 310 nM; on EML4-Alk it was 400 nM; at Bcr-Abl it was 90 nM; against Tel-Alk it was 270 nM.
Taken in the same sequence, the figures for `CCN1CCN(Cc2ccc(NC(=O)c3cccc(-c4ccc5c(N)n[nH]c5c4)c3)cc2C(F)(F)F)CC1` [Compound 17] were 7120 nM, above 10000 nM, 780 nM and above 10000 nM.
On to `Cc1ccc(C(=O)Nc2cccc(C(F)(F)F)c2)cc1Nc1ccc2c(NC(=O)C3CC3)n[nH]c2c1` [Compound 25, 3-(3-(cyclopropanecarboxamido)-1H-indazol-6-ylamino)-4-methyl-N-(3-(trifluoro-methyl)phenyl)benzamide], for which the 50% inhibitory concentration (IC50) on BCR-Abl T315I is above 10000 nM; on EML4-Alk, above 10000 nM; on Bcr-Abl it was 7180 nM; on Tel-Alk, 7180 nM.
Consider `CCN1CCN(Cc2ccc(NC(=O)c3cccc(-c4ccc5c(NC(=O)C6CC6)n[nH]c5c4)c3)cc2C(F)(F)F)CC1` [Compound 19], for which the IC50 on BCR-Abl T315I turned out to be 340 nM; on EML4-Alk, 60 nM; on Bcr-Abl, 650 nM; at Tel-Alk, 30 nM.
Taken in the same sequence, the figures for `Cc1cn(-c2cc(NC(=O)c3cccc(-c4ccc5c(NC(=O)C6CC6)n[nH]c5c4)c3)cc(C(F)(F)F)c2)cn1` [Compound 6] were 310 nM, 1340 nM, 3070 nM and 2900 nM.
Taken in the same sequence, the figures for `CONC(=O)c1cccc(-c2ccc3c(NC(=O)C4CC4)n[nH]c3c2)c1` [Compound 11] were above 10000 nM, above 10000 nM, above 10000 nM and above 10000 nM.
Take `O=C(Nc1n[nH]c2cc(-c3cccc(C(=O)N4CCC(N5CCCC5)CC4)c3)ccc12)C1CC1` [Compound 8]: the IC50 on BCR-Abl T315I, on EML4-Alk, at Bcr-Abl and against Tel-Alk was above 10000 nM in each case.
`CCN1CCN(Cc2ccc(NC(=O)c3cccc(Nc4ccc5c(NC(=O)C6CC6)n[nH]c5c4)c3)cc2C(F)(F)F)CC1` [Compound 24]: the IC50 at BCR-Abl T315I stood at 3110 nM; on EML4-Alk, 2530 nM; at Bcr-Abl, 2380 nM; against Tel-Alk, 3750 nM.
Taken in the same sequence, the figures for `CNc1n[nH]c2cc(-c3cccc(C(=O)Nc4cc(-n5cnc(C)c5)cc(C(F)(F)F)c4)c3)ccc12` [Compound 18] were 3080 nM, above 10000 nM, 1570 nM and above 10000 nM.
Take `Cc1ccc(C(=O)Nc2cccc(C(F)(F)F)c2)cc1-c1ccc2c(NC(=O)C3CC3)n[nH]c2c1` [Compound 15]: the IC50 is above 10000 nM on BCR-Abl T315I, 8470 nM against EML4-Alk, 1190 nM at Bcr-Abl and 1290 nM against Tel-Alk.
`CCN1CCN(Cc2ccc(C(=O)Nc3cccc(-c4ccc5c(NC(=O)C6CC6)n[nH]c5c4)c3)cc2C(F)(F)F)CC1` [Compound 23]: the IC50 on BCR-Abl T315I, against EML4-Alk, against Bcr-Abl and against Tel-Alk was above 10000 nM each time.
Take `O=C(NC1CC1)c1cccc(-c2ccc3c(NC(=O)C4CC4)n[nH]c3c2)c1` [Compound 10]: the IC50 on BCR-Abl T315I, against EML4-Alk, against Bcr-Abl and against Tel-Alk was above 10000 nM in each case.
Turning to `COc1cc(Nc2ccc3c(NC(=O)C4CC4)n[nH]c3c2)cc(C(=O)Nc2ccc(CN3CCN(C)CC3)c(C(F)(F)F)c2)c1` [Compound 26], the IC50 at EML4-Alk was above 10000 nM; against Bcr-Abl, 7080 nM; against Tel-Alk it was 7080 nM.
With `CCN1CCN(Cc2ccc(NC(=O)c3cccc(-c4ccc5c(NC(=O)C6CC6)n[nH]c5c4)c3)cc2)CC1` [Compound 9], the IC50 at BCR-Abl T315I, at EML4-Alk, on Bcr-Abl and at Tel-Alk was above 10000 nM throughout.
With `CCN1CCN(Cc2ccc(NC(=O)Nc3cccc(-c4ccc5c(NC(=O)C6CC6)n[nH]c5c4)c3)cc2C(F)(F)F)CC1` [Compound 21], the IC50 at BCR-Abl T315I was found to be 240 nM; against EML4-Alk it was 360 nM; against Bcr-Abl, 530 nM; against Tel-Alk, 320 nM.
With `CCN1CCN(Cc2ccc(NC(=O)c3ccc(C)c(-c4ccc5c(NC(=O)C6CC6)n[nH]c5c4)c3)cc2C(F)(F)F)CC1` [Compound 13], the IC50 on BCR-Abl T315I stood at 500 nM; at EML4-Alk, 1060 nM; against Bcr-Abl, 30 nM; at Tel-Alk it was 310 nM.
Consider `O=C(Nc1cccc(-c2ccc3c(NC(=O)C4CC4)n[nH]c3c2)c1)C1CC1` [Compound 22], for which the IC50 amounted to 1270 nM on BCR-Abl T315I, 500 nM against EML4-Alk, 360 nM against Bcr-Abl and 430 nM against Tel-Alk.
For `CCN1CCN(Cc2ccc(NC(=O)c3ccc(C)c(-c4ccc5c(NC(=O)C6CC6)n[nH]c5c4)c3)cc2)CC1` [Compound 14], the IC50 is above 10000 nM at BCR-Abl T315I, 5600 nM on EML4-Alk, 1050 nM against Bcr-Abl and 1440 nM against Tel-Alk.
`CN1CCN(c2ccc(C(=O)Nc3n[nH]c4cc(-c5cccc(C(=O)Nc6cccc(C(F)(F)F)c6)c5)ccc34)cc2)CC1` [Compound 28, 3-(3-(4-(4-methylpiperazin-1-yl)benzamido)-1H-indazol-6-yl)-N-(3-(trifluoromethyl)phenyl)benzamide]: the IC50 on BCR-Abl T315I is above 10000 nM; on EML4-Alk it was above 10000 nM; against Bcr-Abl, 1440 nM; at Tel-Alk, above 10000 nM.
`CCN1CCN(Cc2ccc(NC(=O)c3cccc(-c4ccc5c(NC(=O)c6ccccc6)n[nH]c5c4)c3)cc2C(F)(F)F)CC1` [Compound 3]: the values for the IC50 against EML4-Alk, against Bcr-Abl and against Tel-Alk were 1670 nM, 470 nM and 1070 nM, respectively.
For the compound `CCOC(=O)c1cccc(-c2ccc3c(NC(=O)c4ccc(N5CCN(C)CC5)cc4)n[nH]c3c2)c1` [Compound 27], the IC50 on BCR-Abl T315I was 1560 nM; at EML4-Alk, 4220 nM; against Bcr-Abl, 70 nM; on Tel-Alk, 5260 nM.
In the case of `Cc1cn(-c2cc(NC(=O)c3ccc(C)c(-c4ccc5c(NC(=O)C6CC6)n[nH]c5c4)c3)cc(C(F)(F)F)c2)cn1` [Compound 16], the IC50 on BCR-Abl T315I was above 10000 nM; against EML4-Alk, above 10000 nM; on Bcr-Abl, 220 nM; at Tel-Alk it was above 10000 nM.
Take `CNC(=O)c1cccc(-c2ccc3c(NC(=O)C4CC4)n[nH]c3c2)c1` [Compound 12]: the IC50 on BCR-Abl T315I came to 2080 nM; against EML4-Alk, 1050 nM; on Bcr-Abl, 1900 nM; at Tel-Alk, 720 nM.
